Assay results published in PubChem BioAssay (NCI).
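96-well plates; 48 h exposure; 5 concentrations. Endpoints by linear interpolation between flanking doses. Not reached: highest tested concentration assigned. TGI: concentration producing complete growth inhibition.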

Columns and labels:
Assay in all cases: NCI tumour cell line growth inhibition, 48 h
KM12 colon = system: KM12 colon
MCF7 breast = system: MCF7 breast
COLO 205 colon = system: COLO 205 colon
MDA-N = system: MDA-N
786-0 renal = system: 786-0 renal
OVCAR-3 ovarian = system: OVCAR-3 ovarian
A498 renal = system: A498 renal
SW-620 colon = system: SW-620 colon
SN12C renal = system: SN12C renal
RPMI-8226 leukemia = system: RPMI-8226 leukemia
NCI/ADR-RES ovarian = system: NCI/ADR-RES ovarian
NCI-H460 lung = system: NCI-H460 lung
DU-145 prostate = system: DU-145 prostate
NCI-H522 lung = system: NCI-H522 lung
HCC-2998 colon = system: HCC-2998 colon
ACHN renal = system: ACHN renal
SK-OV-3 ovarian = system: SK-OV-3 ovarian
HCT-116 colon = system: HCT-116 colon
CAKI-1 renal = system: CAKI-1 renal
HS 578T breast = system: HS 578T breast
HCT-15 colon = system: HCT-15 colon
SF-295 CNS = system: SF-295 CNS
NCI-H23 lung = system: NCI-H23 lung
UACC-257 melanoma = system: UACC-257 melanoma
M14 melanoma = system: M14 melanoma
UACC-62 melanoma = system: UACC-62 melanoma
MOLT-4 leukemia = system: MOLT-4 leukemia
SK-MEL-28 melanoma = system: SK-MEL-28 melanoma
NCI-H226 lung = system: NCI-H226 lung
MALME-3M melanoma = system: MALME-3M melanoma
SNB-19 CNS = system: SNB-19 CNS
A549 NSCLC = system: A549 NSCLC
OVCAR-4 ovarian = system: OVCAR-4 ovarian
T-47D breast = system: T-47D breast
MDA-MB-435 = system: MDA-MB-435
HT29 colon = system: HT29 colon
SNB-75 CNS = system: SNB-75 CNS
CCRF-CEM leukemia = system: CCRF-CEM leukemia
EKVX NSCLC = system: EKVX NSCLC
HL-60(TB) leukemia = system: HL-60(TB) leukemia
U251 CNS = system: U251 CNS
TK-10 renal = system: TK-10 renal
HOP-62 NSCLC = system: HOP-62 NSCLC
UO-31 renal = system: UO-31 renal
SF-539 CNS = system: SF-539 CNS
IGROV1 ovarian = system: IGROV1 ovarian
K-562 leukemia = system: K-562 leukemia
OVCAR-8 ovarian = system: OVCAR-8 ovarian
BT-549 breast = system: BT-549 breast
MDA-MB-231 breast = system: MDA-MB-231 breast
OVCAR-5 ovarian = system: OVCAR-5 ovarian
SK-MEL-5 melanoma = system: SK-MEL-5 melanoma
SR leukemia = system: SR leukemia
SK-MEL-2 melanoma = system: SK-MEL-2 melanoma
RXF 393 renal = system: RXF 393 renal
LOX IMVI melanoma = system: LOX IMVI melanoma
PC-3 prostate = system: PC-3 prostate
SF-268 CNS = system: SF-268 CNS
HOP-92 NSCLC = system: HOP-92 NSCLC

Measured: TGI

C=CCOC1=C(OC(C)=O)C(=O)OC1C1COC(C)(C)O1 (stereo not drawn)
> 100 µM: MDA-N | A498 renal | RPMI-8226 leukemia | NCI/ADR-RES ovarian | NCI-H460 lung | DU-145 prostate | HCC-2998 colon | SK-OV-3 ovarian | HS 578T breast | SF-295 CNS | UACC-257 melanoma | UACC-62 melanoma | NCI-H226 lung | SNB-19 CNS | A549 NSCLC | U251 CNS | TK-10 renal | HOP-62 NSCLC | IGROV1 ovarian | MDA-MB-231 breast | OVCAR-5 ovarian | SK-MEL-5 melanoma | PC-3 prostate | SF-268 CNS
> 80.7 µM: M14 melanoma
> 68.7 µM: SN12C renal
31.9 µM: SK-MEL-28 melanoma
> 56.5 µM: K-562 leukemia | RXF 393 renal
> 65.6 µM: KM12 colon
> 58.9 µM: COLO 205 colon
> 88.2 µM: BT-549 breast
32.1 µM: OVCAR-4 ovarian
> 66.4 µM: MCF7 breast
33.2 µM: LOX IMVI melanoma
46.6 µM: ACHN renal
> 79.4 µM: UO-31 renal
> 59.7 µM: SW-620 colon
45.7 µM: MOLT-4 leukemia
> 84.6 µM: OVCAR-8 ovarian
9.02 µM: SR leukemia
> 57.1 µM: CAKI-1 renal
> 60.7 µM: 786-0 renal
> 74.8 µM: SF-539 CNS
> 83.2 µM: NCI-H23 lung | HT29 colon
> 68 µM: EKVX NSCLC
98.9 µM: SK-MEL-2 melanoma
> 65.2 µM: HCT-116 colon
> 60.8 µM: HL-60(TB) leukemia
> 60.4 µM: CCRF-CEM leukemia
34.6 µM: NCI-H522 lung
> 63.7 µM: T-47D breast
31.4 µM: OVCAR-3 ovarian
46.2 µM: HCT-15 colon
> 74 µM: MDA-MB-435
57.1 µM: MALME-3M melanoma
> 71.3 µM: SNB-75 CNS

O=C(Nc1ccn(C2CCC(CO)O2)c(=O)n1)c1ccccc1 (stereo not drawn)
> 100 µM: KM12 colon | MCF7 breast | COLO 205 colon | MDA-N | 786-0 renal | A498 renal | SW-620 colon | SN12C renal | RPMI-8226 leukemia | NCI/ADR-RES ovarian | DU-145 prostate | NCI-H522 lung | HCC-2998 colon | ACHN renal | SK-OV-3 ovarian | HCT-116 colon | CAKI-1 renal | HS 578T breast | HCT-15 colon | SF-295 CNS | NCI-H23 lung | UACC-257 melanoma | M14 melanoma | UACC-62 melanoma | MOLT-4 leukemia | SK-MEL-28 melanoma | NCI-H226 lung | MALME-3M melanoma | SNB-19 CNS | A549 NSCLC | T-47D breast | MDA-MB-435 | HT29 colon | SNB-75 CNS | CCRF-CEM leukemia | EKVX NSCLC | HL-60(TB) leukemia | U251 CNS | TK-10 renal | HOP-62 NSCLC | UO-31 renal | SF-539 CNS | IGROV1 ovarian | K-562 leukemia | OVCAR-8 ovarian | BT-549 breast | MDA-MB-231 breast | OVCAR-5 ovarian | SK-MEL-5 melanoma | SR leukemia | SK-MEL-2 melanoma | RXF 393 renal | LOX IMVI melanoma | PC-3 prostate | SF-268 CNS

O=C(O)Cc1cc(F)ccc1C(=O)O
> 100 µM: KM12 colon | MCF7 breast | COLO 205 colon | MDA-N | 786-0 renal | OVCAR-3 ovarian | A498 renal | SW-620 colon | SN12C renal | RPMI-8226 leukemia | NCI/ADR-RES ovarian | NCI-H460 lung | DU-145 prostate | NCI-H522 lung | HCC-2998 colon | ACHN renal | SK-OV-3 ovarian | HCT-116 colon | HOP-92 NSCLC | CAKI-1 renal | HS 578T breast | HCT-15 colon | SF-295 CNS | NCI-H23 lung | UACC-257 melanoma | M14 melanoma | UACC-62 melanoma | MOLT-4 leukemia | SK-MEL-28 melanoma | SNB-19 CNS | A549 NSCLC | T-47D breast | MDA-MB-435 | HT29 colon | SNB-75 CNS | CCRF-CEM leukemia | EKVX NSCLC | HL-60(TB) leukemia | U251 CNS | TK-10 renal | HOP-62 NSCLC | UO-31 renal | SF-539 CNS | K-562 leukemia | OVCAR-8 ovarian | BT-549 breast | MDA-MB-231 breast | OVCAR-5 ovarian | SK-MEL-5 melanoma | SR leukemia | SK-MEL-2 melanoma | RXF 393 renal | LOX IMVI melanoma | PC-3 prostate | SF-268 CNS
75.9 µM: IGROV1 ovarian

CN1CCN(CCCNN)CC1
1.44 µM: MOLT-4 leukemia
> 100 µM: KM12 colon | MCF7 breast | COLO 205 colon | MDA-N | 786-0 renal | OVCAR-3 ovarian | A498 renal | SW-620 colon | SN12C renal | RPMI-8226 leukemia | NCI/ADR-RES ovarian | NCI-H460 lung | DU-145 prostate | NCI-H522 lung | HCC-2998 colon | ACHN renal | SK-OV-3 ovarian | HCT-116 colon | HOP-92 NSCLC | CAKI-1 renal | HS 578T breast | HCT-15 colon | SF-295 CNS | NCI-H23 lung | UACC-257 melanoma | M14 melanoma | UACC-62 melanoma | SK-MEL-28 melanoma | NCI-H226 lung | SNB-19 CNS | A549 NSCLC | OVCAR-4 ovarian | T-47D breast | MDA-MB-435 | HT29 colon | SNB-75 CNS | EKVX NSCLC | HL-60(TB) leukemia | U251 CNS | TK-10 renal | HOP-62 NSCLC | UO-31 renal | SF-539 CNS | IGROV1 ovarian | OVCAR-8 ovarian | BT-549 breast | MDA-MB-231 breast | OVCAR-5 ovarian | SK-MEL-5 melanoma | SR leukemia | SK-MEL-2 melanoma | RXF 393 renal | LOX IMVI melanoma | PC-3 prostate | SF-268 CNS
37.5 µM: K-562 leukemia

Clc1ccc(-c2nc3ccc(Cl)cc3[nH]2)cc1
67.4 µM: SK-MEL-2 melanoma
> 100 µM: MCF7 breast | 786-0 renal | SW-620 colon | DU-145 prostate | ACHN renal | SK-OV-3 ovarian | CAKI-1 renal | HS 578T breast | HCT-15 colon | UACC-257 melanoma | M14 melanoma | UACC-62 melanoma | MOLT-4 leukemia | SK-MEL-28 melanoma | NCI-H226 lung | MALME-3M melanoma | SNB-19 CNS | A549 NSCLC | OVCAR-4 ovarian | T-47D breast | HT29 colon | SNB-75 CNS | CCRF-CEM leukemia | EKVX NSCLC | HL-60(TB) leukemia | U251 CNS | TK-10 renal | HOP-62 NSCLC | SF-539 CNS | IGROV1 ovarian | K-562 leukemia | OVCAR-8 ovarian | BT-549 breast | MDA-MB-231 breast | SK-MEL-5 melanoma | SR leukemia | RXF 393 renal | SF-268 CNS
98.1 µM: KM12 colon
69.5 µM: LOX IMVI melanoma
79.3 µM: UO-31 renal
86.6 µM: SN12C renal
56.1 µM: NCI/ADR-RES ovarian
79.1 µM: RPMI-8226 leukemia
84.5 µM: MDA-MB-435
89.1 µM: HCC-2998 colon
80.1 µM: NCI-H522 lung
90.3 µM: NCI-H23 lung
53.3 µM: HCT-116 colon
98.4 µM: NCI-H460 lung
96.5 µM: OVCAR-3 ovarian
77.5 µM: PC-3 prostate
74.9 µM: SF-295 CNS
34.9 µM: COLO 205 colon
75.1 µM: HOP-92 NSCLC
85.2 µM: MDA-N
